In paper PMC4844309, “Identification of a Bioactive Compound against Adult T-cell Leukaemia from Bitter Gourd Seeds” (Plants, 2013):
Read-outs that look alike come from different tables or passages of the source.

Experiments:
[1] = tested on: Su9T01 cells; assay: ATL cell proliferation assay (WST-8), Su9T01 cells; assay type: cell-based, human; settings: read-out: IC50 (inhibition of cell proliferation), Su9T01
Experimental: (§1) ED cells were kindly provided by Dr. M. Maeda (Kyoto University, Kyoto, Japan) and Su9T01 cells were kindly provided by Dr. N. Arima (Kagoshima University, Kagoshima, Japan). The test compounds were dissolved in dimethyl sulfoxide and subjected to assay screening. The method of ATL assay is described in a previous report. IC50 calculation was some curve fitted onto the determined proliferation inhibition points.

[2] = tested on: ED cells; assay: ATL cell proliferation assay (WST-8), ED cells; assay type: cell-based, human; settings: read-out: IC50 (inhibition of cell proliferation), ED
Experimental: as §1

[3] = tested on: phytohemagglutinin-activated human peripheral blood mononuclear cells (PBMC); assay: cells; settings: read-out: IC50 (inhibition of PBMC proliferation)
Experimental: as §1

[4] = tested on: HL-60 cells; design: method as in PMID 22654956, PMID 18959405; settings: human acute myelogenous leukemia cells; cited from earlier work
[5] = Homo sapiens, Su9T01 cells, 72 h incubation in RPMI-1640, WST-8 assay
[6] = Homo sapiens, ED cells, 72 h incubation in RPMI-1640, WST-8 assay
[7] = Su9T01 cells, 72 h incubation in RPMI-1640, WST-8 assay
[8] = ED cells, 72 h incubation in RPMI-1640, WST-8 assay

## CCCCCCCC/C=C/CCCCCCCC(=O)O [elaidic acid]
[1]; Homo sapiens, 72 h
  IC50: > 500 µM
[2]; Homo sapiens, 72 h
  IC50: > 500 µM

## CCCCC/C=C\C/C=C\CCCCCCCC(=O)O [linoleic acid]
[1]; [5]
  IC50: 180 µM
[2]; [6]
  IC50: 101 µM

## CCCCCCCCCCCCCCCCCC(=O)O [stearic acid, Stearic acid]
[1]; [5]
  IC50: > 500 µM

## CCCC/C=C/C=C/C=C\CCCCCCCC(=O)O [α-ESA, α-Eleostearic acid]
[3]
  IC50: 31 µM
[1]; Homo sapiens, 72 h
  IC50: 29.3 µM
[4]
  Anti-leukemic potential in HL-60 cells: anti-leukemic potential
[2]; Homo sapiens, 72 h
  IC50: 8.9 µM

## CC/C=C\C/C=C\C/C=C\CCCCCCCC(=O)O [α-linolenic acid]
[1]; [7]
  IC50: 167 µM
[2]; [8]
  IC50: 130 µM

## CCCCC/C=C\C/C=C\C/C=C\CCCCC(=O)O [γ-linolenic acid, γ-Linolenic acid]
[1]; [5]
  IC50: 174 µM
[2]; [6]
  IC50: 61.3 µM

## Epigallocatechin-3-gallate [EGCG]
[1]; [7]
  IC50: 166 µM
[2]; [8]
  IC50: 153 µM
